# Results as given in patent US12011436B2, “Use of NOX inhibitors for treatment of cancer” (CALLIDITAS THERAPEUTICS SUISSE SA, priority 2017, dated 2024).
# Test system: 4T1 cancer cells mixed with BALB/C breast CAFs
# Test: 4T1 breast cancer cells co-injected with CAFs into the mammary fat pad of mice, NOX4 inhibitor treatment
# Type: in vivo, mouse
# Details: 4T1+CAF tumours
# Description: Fourteen (14) days after randomization and if the antitumor activity of NOX4/1 compounds alone or in combination is considered sufficient, tumors from 5 satellite mice per group are collected, weighed and the tumor is cut in 2 fragments. One fragment is cut into slices 4 mm thick and fixed in 4% neutral buffered formalin for 24 to 48 h, and then embedded in paraffin (Histosec®, Merck, Darmstadt, Germany). One fragment is embedded in tissue Freezing Medium (Microm Microtech, France), snap-frozen in isopentane cooled over liquid nitrogen and stored at […] until processing. Immunohistochemical stains for CD3, CD4 and CD8 are performed on paraffin-embedded tissue sections using standard techniques (Biodoxis, France). The number of CD3, CD4 and CD8 immunopositive cells per field are counted. When 4T1 cancer cells (0.5×105) are used, those are injected in PBS s.c into the upper mammary fat pad of female mice aged 8-10 weeks. Cells are either injected on their own, or mixed with 2.5×105 BALB/C breast CAFs isolated from transgenic BALBneuT spontaneous stromal-rich breast tumours. […] GKT137831 was reconstituted in 1.2% Methyl Cellulose (Sigma) with 0.1% Polysorbate (Sigma) and administered by oral gavage 5×/week at 40 mg/kg. Control mice received vehicle by oral gavage. For longer term dosing, 15 initial doses were given as stated, but reduced to 3×/week for 3 weeks at 50 mg/kg, then 2×/week for 3 weeks at 60 mg/kg. The anti PD-1 antibody (Bioxcell; RMP1-14) was given via […]) injection. 300 μg of the antibody or the IgG2a isotype control (Bioxcell) were given when tumours were palpable every other day, totaling 3 doses. For the data presented under FIG. 1, tumours were measured every 2-3 days by electronic skin caliper from longest width and length. Tumour volume was calculated using the formula 4/3πXr3, where the radius (r) was calculated from tumour width and length measurement to provide an average diameter value. Mice were randomized into groups based on tumour volume so that no statistical difference occurred between mean tumour volumes between groups before treatments began. […]
smiles,measurement,setting,value
"CN(C)c1cccc(-c2c3c(=O)n(-c4ccccc4Cl)[nH]c3cc(=O)n2C)c1 [GKT, 2-(2-chlorophenyl)-4-[3-(dimethylamino)phenyl]-5-methyl-1H-pyrazolo [4,3-c]pyridine-3,6(2H,5H)-dione]",SMA-positive CAF in tumours (immunochemistry),FIG. 1B,significantly reduces
same,CD8+ T-cell location in tumour (immunochemistry),FIG. 1C,relocation of CD8+ T-cells from the tumour edge into the centre of the tumour
same,tumour volume vs vehicle alone,"day 15, after 8 days of treatment, oral gavage 40 mg/kg 5x/week, FIG. 1A",significantly smaller
